Assay results from US5312816A, “Method of combatting osteoporosis in mammalian subjects, utilizing organic boron compounds” (priority 1993, dated 1994).
Structures can show the parent of a compound that is named as a salt. Where two headings read alike, the source gives them in different places.

Legend:
Cathepsin = experiment: Human leukocyte cathepsin; format: cell-based; conditions: Table XIX; read-out: Human Leukocyte IC50 (head gives no enzyme; beside Cathepsin D)
Excerpt: 5. Human peripheral leukocytes, RPMI-1788
(§1) 2. Acid Cathepsin D -azocasein-pH 5.0, hydrolytic azo-peptide produce 366 nm.

Cathepsin D [1] = biological target: T1, Cathepsin D (Mus musculus, UniProt P18242); experiment: Mouse hepatic lysosomal cathepsin D activity; format: biochemical
T1 construct: azocasein assay pH 5.0
T1 sequence (P18242 65-410): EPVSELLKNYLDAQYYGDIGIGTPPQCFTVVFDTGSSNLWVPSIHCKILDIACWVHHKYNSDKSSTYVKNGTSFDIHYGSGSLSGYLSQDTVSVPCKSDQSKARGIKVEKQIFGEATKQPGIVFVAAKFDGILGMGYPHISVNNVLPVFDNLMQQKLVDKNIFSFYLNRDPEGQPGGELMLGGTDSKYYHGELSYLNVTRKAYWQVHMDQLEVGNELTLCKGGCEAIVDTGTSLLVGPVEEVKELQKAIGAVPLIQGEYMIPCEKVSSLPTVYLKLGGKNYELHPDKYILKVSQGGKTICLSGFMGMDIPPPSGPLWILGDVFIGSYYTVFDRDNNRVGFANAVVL
Excerpt: (§2) 1. Cf1 male mouse hepatic 10% homogenates in 0.25M sucrose+0.001MEDTA,pH 7.2.
(§3) Lysosomal Enzymes - free and total [triton X-100].
as §1
Cathepsin azo casein activity -

5'-Lipoxygenase = biological target: T2, 5'-Lipoxygenase (Homo sapiens, UniProt P09917); experiment: Human leukocyte 5'-lipoxygenase; format: cell-based
T2 construct: human leukocyte tissue culture cells; endogenous in cells; host or cells: Human peripheral leukocytes, RPMI-1788
T2 sequence (P09917 1-674): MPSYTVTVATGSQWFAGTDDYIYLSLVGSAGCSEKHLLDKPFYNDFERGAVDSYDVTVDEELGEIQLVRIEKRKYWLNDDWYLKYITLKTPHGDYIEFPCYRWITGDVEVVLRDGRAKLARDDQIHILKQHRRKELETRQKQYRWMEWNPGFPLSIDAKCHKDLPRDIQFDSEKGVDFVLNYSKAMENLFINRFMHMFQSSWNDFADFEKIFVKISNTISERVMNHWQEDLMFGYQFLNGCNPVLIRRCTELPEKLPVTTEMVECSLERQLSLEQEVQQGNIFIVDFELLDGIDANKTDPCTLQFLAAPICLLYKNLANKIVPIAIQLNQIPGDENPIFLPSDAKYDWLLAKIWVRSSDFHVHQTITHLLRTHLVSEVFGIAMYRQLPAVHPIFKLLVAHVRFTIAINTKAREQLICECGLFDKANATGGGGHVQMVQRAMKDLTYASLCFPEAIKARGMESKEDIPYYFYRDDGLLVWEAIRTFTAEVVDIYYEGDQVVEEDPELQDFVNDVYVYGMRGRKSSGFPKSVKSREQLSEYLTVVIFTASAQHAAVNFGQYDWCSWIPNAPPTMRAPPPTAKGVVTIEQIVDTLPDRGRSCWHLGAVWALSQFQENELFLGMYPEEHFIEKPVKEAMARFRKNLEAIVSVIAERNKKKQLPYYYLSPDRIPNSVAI

Cf1 male mice [2] = experiment: Anti-inflammatory screen, Winter's test, 2% carrageenan hind foot; format: in vivo; conditions: Table XIV; unit inferred; unit assumed
Experimental: Anti-inflammatory Screen- Cf1 - male mice-Winter's Test 2% carrageenan S.C. plantar surface of hind foot, drugs administered @8 or 10 mg/kg I.P. 2X
Winter, C.A., et al, Proc. Soc.

Cathepsin D [3] = biological target: T1, Cathepsin D; experiment: Mouse macrophage cathepsin D activity; format: cell-based; conditions: Table XVII; mouse macrophage, 60 min incubation; read-out: Cathepsin D pH 5.0 IC50
Excerpt: (§4) 3. Mouse macrophages J774A.1 BALB/c
as §1

Trypsin [4] = experiment: Mouse macrophage trypsin (BAEE) activity; format: cell-based; conditions: Table XVIII; mouse macrophage, 60 min incubation; read-out: Trypsin BAEE IC50
Aryl sulphatase [5] = experiment: Mouse hepatic lysosomal aryl sulphatase activity; format: biochemical; conditions: Table XV, 60 min incubation
Excerpt: as §2, §3
3. Aryl sulphatase- p-nitrocatechol sulfate, pH
5. 8 p-nitro-catechol product 510 nm.

[6] = tested on: Prostaglandin cyclooxygenase; experiment: Mouse macrophage prostaglandin cyclooxygenase activity; format: cell-based; conditions: Table XVIII; mouse macrophage, 60 min incubation; read-out: Prostaglandin Cyclooxygenase IC50
Excerpt: as §4
Prostaglandin synthetase purified beef seminal vesicle ^3 H arachidonic acid (86.2 Ci/mmol), tlc separation.

Cf1 male mice [7] = experiment: Writhing reflex, 0.6% acetic acid; format: in vivo; conditions: Table XIV; unit inferred; unit assumed
Experimental: Writhing reflex- Cf1 -male mice- 0.6% acetic acid I.P. drugs administered @20 mg/kg/ I.P. 20 min. later - the # of stretches/10 min.
Hendershot, L.C., et al, J.

Pg. cyclooxygenase = biological target: T3, Pg. cyclooxygenase (Sus scrofa, UniProt A0A287ANF9); experiment: Porcine seminal vesicles Pg. cyclooxygenase; format: biochemical
T3 construct: Porcine Seminal; from tissue; the methods section prints beef seminal vesicle
T3 sequence (A0A287ANF9 25-600): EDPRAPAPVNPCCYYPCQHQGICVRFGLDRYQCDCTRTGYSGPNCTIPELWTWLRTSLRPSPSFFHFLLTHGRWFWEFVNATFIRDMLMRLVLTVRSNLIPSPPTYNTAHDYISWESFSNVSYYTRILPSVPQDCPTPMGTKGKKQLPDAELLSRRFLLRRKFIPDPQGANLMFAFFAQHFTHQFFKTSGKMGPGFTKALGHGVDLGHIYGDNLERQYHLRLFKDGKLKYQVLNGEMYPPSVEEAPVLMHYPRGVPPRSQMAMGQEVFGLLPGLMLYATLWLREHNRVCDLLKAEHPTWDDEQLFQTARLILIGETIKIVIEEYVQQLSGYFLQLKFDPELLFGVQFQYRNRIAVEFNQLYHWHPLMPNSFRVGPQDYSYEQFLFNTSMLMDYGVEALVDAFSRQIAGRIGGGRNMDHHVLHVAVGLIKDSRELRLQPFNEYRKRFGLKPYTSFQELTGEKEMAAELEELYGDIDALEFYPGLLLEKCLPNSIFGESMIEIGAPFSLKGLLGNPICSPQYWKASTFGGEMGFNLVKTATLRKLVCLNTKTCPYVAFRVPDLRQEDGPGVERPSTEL

Commercial Collagenase = experiment: Commercial collagenase (type not stated); format: biochemical; conditions: Table XVI, 60 min incubation
Excerpt: 3. Collagenase I, Clostridium histolyticum, bone, skin, tendon, blood vessel, dentine, GI. substrate: rat collagen, N-[propionate-2-3-^3 H] propionylated measured as dpm released.
4. Collagenase II, Clostridium histolyticum, cartilage collagen.

Acid phosphatase [8] = experiment: Mouse macrophage acid phosphatase activity; format: cell-based; conditions: Table XVII; mouse macrophage, 60 min incubation; read-out: Acid Phosphatase IC50
Cf1 male mice [9] = experiment: Hot plate tail flick test; format: in vivo; conditions: Table XIV; unit not given
Acid phosphatase [10] = experiment: Mouse hepatic lysosomal acid phosphatase activity; format: biochemical; conditions: Table XV; mouse hepatic, 60 min incubation
Excerpt: as §2, §3
1. Acid phosphatase -beta glycerol-3-phosphate, pH 5.0, released IP 720 nm.
Acid phosphatase activity -

Aryl sulphatase [11] = experiment: Mouse macrophage aryl sulphatase activity; format: cell-based; conditions: Table XVII; mouse macrophage, 60 min incubation; read-out: Aryl Sulphatase IC50
Elastase = experiment: Mouse macrophage elastase activity; format: cell-based; conditions: Table XVIII; mouse macrophage, 60 min incubation; read-out: Elastase IC50
Excerpt: Elastase- N-succinyl-L-alanyl-L-alanine-p-nitroanilide, pH 8.0, p-nitro anilide 410 nm.

Trypsin [12] = experiment: Mouse hepatic trypsin activity; format: biochemical; conditions: Table XVI; 60 min incubation; read-out: Mouse Hepatic Trypsin IC50
Excerpt: as §2
1. Trypsin- N-benzoyl-L-arginine ethyl ester pH 8.0, hydrolytic product 253 nm.

Phosphorus = experiment: Serum and urine inorganic phosphorus levels in vivo; conditions: Cf1 male mice, 8 mg/kg/day I.P. 14 days, N=6
Hydroxyproline = experiment: Serum and urine hydroxyproline levels in vivo; conditions: Cf1 male mice, 8 mg/kg/day I.P. 14 days, N=6
Calcium = experiment: Serum and urine calcium levels in vivo; conditions: Cf1 male mice, 8 mg/kg/day I.P. 14 days, N=6
[13] = Table XV, mouse hepatic, 60 min incubation, read-out: Cathepsin D IC50

SMILES	Anti-Inflammation Cf1 Mice (Cf1 male mice [2]) [%]	IC50 (Cathepsin D [3]) [µM]	IC50 (Trypsin [4]) [µM]	IC50 (Aryl sulphatase [5]) [µM]	IC50 [6] [µM]	Writhing Reflex Mice (Cf1 male mice [7]) [%]	IC50 (Cathepsin D [1]; [13]) [µM]	IC50 (Acid phosphatase [8]) [µM]	Tail Flick Mice (Cf1 male mice [9])	IC50 (Acid phosphatase [10]) [µM]	IC50 (Aryl sulphatase [11]) [µM]	IC50 (Elastase) [µM]	IC50 (Trypsin [12]) [µM]	Hydroxyproline serum (Hydroxyproline) [% Control]	Hydroxyproline urine (Hydroxyproline) [% Control]	Calcium urine (Calcium) [% Control]	IC50 (Pg. cyclooxygenase; Table XVI, 60 min incubation) [µM]	IC50 (Commercial Collagenase) [µM]	other results
CC(C)[Si](OC[C@H]1O[C@@H](n2ccc(N)nc2=O)C[C@@H]1O[Si](C(C)C)(C(C)C)C(C)C)(C(C)C)C(C)C [Compound 38]	–	–	–	–	–	–	–	–	–	–	–	–	–	–	–	–	–	–	IC50 (Cathepsin): 13.9 µM; IC50 (Cathepsin D [1]; read-out: Mouse Hepatic Cathepsin D IC50, Table XIX): 59.7 µM; IC50 (5'-Lipoxygenase): 7.72 µM
C[N+](C)(C)[BH2-]C(=O)O [Compound 22, Trimethylamine-carboxyborane, sodium salt]	73.4	1.92	2.27	5.15	2.41	76.5	6.69	2	101	3.56	1.33	7.26	9.98	–	–	–	–	–	IC50 (Pg. cyclooxygenase): 2.4 µM; IC50 (Commercial Collagenase; sodium salt): 490 µM
C[NH2+][BH2-]C(=O)OC [CH3 NH2 BH2 COOCH3, Methylamine-carbomethoxyborane]	–	–	–	–	–	–	–	–	–	–	–	–	–	68.0	144.1	176.9	–	–	Phosphorus serum (Phosphorus): 65.3 % Control; Phosphorus urine (Phosphorus): 136.8 % Control; Calcium serum (Calcium): 105.1 % Control
C[N+](C)(C)[BH2-]C(=O)[O-].C[N+](C)(C)[BH2-]C(=O)[O-].C[N+](C)(C)[BH2-]C(=O)[O-].C[N+](C)(C)[BH2-]C(=O)[O-].C[N+](C)(C)[BH2-]C(=O)[O-].C[N+](C)(C)[BH2-]C(=O)[O-].O.O.O.[Cl-].[Fe+3].[Fe+3].[Fe+3].[O-2] [Compound 25]	74.2	3.39	1.81	2.33	2.08	36.4	8.17	2.44	599	4.14	2.75	4.11	9.91	–	–	–	4.17	475	–
O=C(O)[BH2-][P+](c1ccccc1)(c1ccccc1)c1ccccc1 [Compound 8, Triphenylphosphine-carboxyborane]	–	–	–	–	–	–	–	–	–	–	–	–	–	60.5	30.0	83.5	–	–	–
CC#N.CO.CO.CO.C[N+](C)(C)[BH2-]C(=O)[O-].C[N+](C)(C)[BH2-]C(=O)[O-].C[N+](C)(C)[BH2-]C(=O)[O-].C[N+](C)(C)[BH2-]C(=O)[O-].C[N+](C)(C)[BH2-]C(=O)[O-].C[N+](C)(C)[BH2-]C(=O)[O-].O=[N+]([O-])[O-].[Fe+3].[Fe+3].[Fe+3].[O-2] [Compound 24]	81.6	2.85	2.37	2.57	2.34	42.9	6.84	2.09	338	5.6	1.95	3.92	9.93	–	–	–	2.9	478	–
